Measurements published in patent US20050101595A1, “N-containing cycloalkyl-substituted amino-thiazole derivatives and pharmaceutical compositions for inhibiting cell proliferation and methods for their use” (PFIZER INC., priority 2003, published 2005).
Structures can show the parent of a compound that is named as a salt. Where two headings read alike, the source gives them in different places.

Tests used:
[1] = biological target: CDK2/Cyclin A (Homo sapiens, UniProt P24941); experiment: Inhibition of CDK2/Cyclin A Retinoblastoma Kinase Activity; format: biochemical; conditions: for Ki: apparent Ki, CDK2/proteolyzed cyclin A, Rb fragment substrate, 25 μM ATP; for CDK2 % Inhibition At 0.03 μM: Table 2
Summary of the method: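 Radiometric filter-binding readout of phosphate transfer to an Rb substrate fragment by purified CDK2/truncated cyclin A at 10 or 19 nM. Run at pH 7.4 with 25 μM ATP, 30 °C, 60–75 min, linear rates; background without enzyme subtracted, Ki from competitive-inhibition models.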

[2] = system: HCT-116 cell line; experiment: Inhibition of cell growth, tetrazolium salt (MTT) assay; format: cell-based; conditions: for HCT-116 % Inhibition at 0.25 μM: 0.25 μM compound; for IC50: Homo sapiens, HCT-116, 120 h, MTT, three to five days, read-out: HCT-116 IC50
Summary of the method: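 Growth inhibition by MTT reduction at 540 nm (0.2 mg/mL, 4 h at 37° C, formazan dissolved in DMSO), normalized to cells given only 0.5% v/v DMSO. HCT-116 cultures in McCoy's 5A were dosed 4 h post-plating and kept three to five days at 37° C, 5% CO2.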

[3] = biological target: human CDK4 and genetically truncated (1-264) cyclin D3 (Homo sapiens, UniProt P11802); experiment: Inhibition of CDK4/Cyclin D Retinoblastoma Kinase Activity; format: biochemical; conditions: for Ki: apparent Ki, CDK4/truncated cyclin D3, Rb fragment substrate, 25 μM ATP
human CDK4 and genetically truncated (1-264) cyclin D3, sequence (P11802 whole entry, the tested form may be a part): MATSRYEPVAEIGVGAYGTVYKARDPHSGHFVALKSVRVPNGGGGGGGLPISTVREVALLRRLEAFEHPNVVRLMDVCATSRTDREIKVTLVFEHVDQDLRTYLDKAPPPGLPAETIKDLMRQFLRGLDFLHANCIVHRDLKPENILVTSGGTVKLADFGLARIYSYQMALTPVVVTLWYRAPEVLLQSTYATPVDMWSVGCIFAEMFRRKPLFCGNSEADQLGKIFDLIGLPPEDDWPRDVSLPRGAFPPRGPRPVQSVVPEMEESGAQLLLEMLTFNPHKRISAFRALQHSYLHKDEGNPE
human CDK4 and genetically truncated (1-264) cyclin D3, sequence (P30281 1-264 partner): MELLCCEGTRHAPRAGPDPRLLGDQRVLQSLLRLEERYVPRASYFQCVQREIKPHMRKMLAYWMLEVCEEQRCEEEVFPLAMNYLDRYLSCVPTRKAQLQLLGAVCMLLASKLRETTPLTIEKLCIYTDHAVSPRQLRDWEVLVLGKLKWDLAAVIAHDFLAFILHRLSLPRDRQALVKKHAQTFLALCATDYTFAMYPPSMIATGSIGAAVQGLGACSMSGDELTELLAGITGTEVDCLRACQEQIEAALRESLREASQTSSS
Summary of the method: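 Apparent Ki values come from competitive or competitive tight-binding inhibition fits of background-corrected 32P/33P incorporation into His-tagged Rb fragment (386-928), captured on nitrocellulose. Reaction: 5 nM insect-cell-expressed human CDK4 with cyclin D3 (1-264), 25 μM ATP, pH 7.4 HEPES, 2% DMSO, 30° C., 20 min, extended to 60 min for tight-binding inhibitors.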

[4] = 0.1 μM compound, HCT-116, Table 3

With `Nc1nc(NC2CCN(C(=O)c3ccccc3OC(F)(F)F)CC2)sc1C(=O)c1c(F)cccc1F` [Example R23] the “CDK2 % Inhibition at 0.03 μM” value ([1]; at 0.03 μM) was −6%, the “HCT-116 % Inhibition at 0.1 μM” value ([2]; HCT-116 cells, at 0.1 μM) was 2% and the “HCT-116 5 Inhibition at 0.25 μM” value ([2]; HCT-116 cells) was 38. The “CDK4 % Inhibition at 0.03 μM” value ([3]; at 0.03 μM) was 34%.
`Nc1nc(NC2CCN(C(=O)c3ccc(Cl)nc3)CC2)sc1C(=O)c1c(F)cccc1F` [Example R20] was tested, and the “CDK2 % Inhibition at 0.03 μM” value ([1]; at 0.03 μM) was 59%, the “HCT-116 % Inhibition at 0.1 μM” value ([2]; HCT-116 cells, at 0.1 μM) was 0% and the “HCT-116 5 Inhibition at 0.25 μM” value ([2]; HCT-116 cells) was 42. The “CDK4 % Inhibition at 0.03 μM” value ([3]; at 0.03 μM) was 85%.
For `CCc1ccc(S(=O)(=O)N2CCC(Nc3nc(N)c(C(=O)c4c(F)cccc4F)s3)CC2)cc1` [Example P30], the “CDK2 % Inhibition at 0.03 μM” value ([1]; 0.03 μM compound, Table 3) was 53%, the “HCT-116 % Inhibition at 0.1 μM” value [2, 4] was 9% and the “HCT-116 % Inhibition at 0.25 μM” value ([2]; HCT-116, Table 3) was 17%. For the same compound, the “CDK4 % Inhibition at 0.03 μM” value ([3]; 0.03 μM compound, Table 3) was 61%.
For `CC(C)S(=O)(=O)N1CCC(Nc2nc(N)c(C(=O)c3c(F)cccc3F)s2)CC1` [Example P24], the “CDK2 % Inhibition at 0.03 μM” value ([1]; 0.03 μM compound, Table 3) was 5%, the “HCT-116 % Inhibition at 0.1 μM” value [2, 4] was 26% and the “HCT-116 % Inhibition at 0.25 μM” value ([2]; HCT-116, Table 3) was 36%. The “CDK4 % Inhibition at 0.03 μM” value ([3]; 0.03 μM compound, Table 3) was 24%.
With `CS(=O)(=O)N1CCCC(Nc2nc(N)c(C(=O)c3c(F)cccc3F)s2)C1` (stereo not shown) [Example F37, [4-Amino-2-(1-methanesulfonyl-piperidin-3-ylamino)-thiazol-5-yl]-(2,6-difluoro-phenyl)-methanone] the Ki [1] was 430 nM, the IC50 ([2]; first HCT-116 column (c4)) was 700 nM and the IC50 ([2]; second HCT-116 column (c5)) was 1500 nM. The Ki [3] was 1100 nM.
In the case of `COC(=O)c1ccc(C(=O)N2CCC(Nc3nc(N)c(C(=O)c4c(F)cccc4F)s3)CC2)cc1` [Example C4, 4-{4-[4-Amino-5-(2,6-difluoro-benzoyl)-thiazol-2-ylamino]-piperidine-1-carbonyl}-benzoic Acid Methyl Ester], the Ki [1] is reported as 81 nM, the IC50 ([2]; first HCT-116 column (c4)) is reported as 800 nM and the IC50 ([2]; second HCT-116 column (c5)) is reported as 2000 nM. The Ki [3] was 11 nM.
`Nc1nc(NC2CCN(S(=O)(=O)c3ccc(-c4nnn[nH]4)cc3)CC2)sc1C(=O)c1c(F)cccc1F` [Example J4, 1-(4-Amino-2-{1-[4-(1H-tetrazol-5-yl)-benzenesulfonyl]-piperidin-4ylamino}-thiazol-5-yl)-1-(2,6-difluoro-phenyl)-methanone Trifluoroacetic Acid Salt] was tested, and the Ki [1] was less than 1 nM, the IC50 ([2]; first HCT-116 column (c4)) was greater than 5000 nM and the IC50 ([2]; second HCT-116 column (c5)) was greater than 5000 nM. It also gave a Ki [3] of 1.7 nM.
For `Cc1ccccc1NC(=O)N1CCC(Nc2nc(N)c(C(=O)c3c(F)cccc3F)s2)CC1` [Example O11], the “CDK2 % Inhibition At 0.03 μM” value ([1]; 0.03 μM compound) was 35%, the “HCT-116 % Inhibition at 0.25 μM” value ([2]; HCT-116, Table 2) was 0% and the “CDK4 % Inhibition at 0.03 μM” value ([3]; 0.03 μM compound, Table 2) was 6%.
With `Nc1nc(NC2CCN(C(=O)c3cccc(C(F)(F)F)c3)CC2)sc1C(=O)c1c(F)cccc1F` [Example Q24] the “CDK2 % Inhibition at 0.03 μM” value ([1]; 0.03 μM compound, Table 4) was 31%, the “HCT-116 % Inhibition at 0.1 μM” value ([2]; 0.1 μM compound, HCT-116, Table 4) was 36% and the “HCT-116 % Inhibition at 0.25 μM” value ([2]; HCT-116, Table 4) was 71%. The “CDK4 % Inhibition at 0.03 μM” value ([3]; 0.03 μM compound, Table 4) was 65%.
With `CN(C)c1ccc(N=Nc2ccc(S(=O)(=O)N3CCC(Nc4nc(N)c(C(=O)c5c(F)cccc5F)s4)CC3)cc2)cc1` [Example P18] the “CDK2 % Inhibition at 0.03 μM” value ([1]; 0.03 μM compound, Table 3) was −20%, the “HCT-116 % Inhibition at 0.1 μM” value [2, 4] was 20% and the “HCT-116 % Inhibition at 0.25 μM” value ([2]; HCT-116, Table 3) was 36%. For the same compound, the “CDK4 % Inhibition at 0.03 μM” value ([3]; 0.03 μM compound, Table 3) was 6%.
For `Nc1nc(NC2CCN(S(=O)(=O)c3ccccc3F)CC2)sc1C(=O)c1c(F)cccc1F` [Example P32], the “CDK2 % Inhibition at 0.03 μM” value ([1]; 0.03 μM compound, Table 3) was 58%, the “HCT-116 % Inhibition at 0.1 μM” value [2, 4] was 13% and the “HCT-116 % Inhibition at 0.25 μM” value ([2]; HCT-116, Table 3) was 28%. For the same compound, the “CDK4 % Inhibition at 0.03 μM” value ([3]; 0.03 μM compound, Table 3) was 59%.
In the case of `Cc1cc(C)cc(NC(=O)N2CCC(Nc3nc(N)c(C(=O)c4c(F)cccc4F)s3)CC2)c1` [Example O49], the “CDK2 % Inhibition At 0.03 μM” value ([1]; 0.03 μM compound) is reported as 33%, the “HCT-116 % Inhibition at 0.25 μM” value ([2]; HCT-116, Table 2) is reported as 20% and the “CDK4 % Inhibition at 0.03 μM” value ([3]; 0.03 μM compound, Table 2) is reported as −1%.
`Nc1nc(NC2CCN(C(=O)Nc3ccccc3)CC2)sc1C(=O)c1c(F)cccc1F` [Example O3] was tested, and the “CDK2 % Inhibition At 0.03 μM” value ([1]; 0.03 μM compound) was 34%, the “HCT-116 % Inhibition at 0.25 μM” value ([2]; HCT-116, Table 2) was 0% and the “CDK4 % Inhibition at 0.03 μM” value ([3]; 0.03 μM compound, Table 2) was 6%.
